Patent US10167292B2, “Benzodiazepines as bromodomain inhibitors” (Catalyst Therapeutics Pty Ltd, priority 2015, dated 2019)

Key:
[1] = target: BRD-3 (Domain 1) (Homo sapiens (Human), UniProt Q15059); assay: AlphaScreen BRD binding assay, BRD-3 (Domain 1); conditions: acetyl-histone H4 peptide 2.5 nM, protein 80 nM
Method: (§1) Biological Characterization Assay Conditions Binding Assay
BRD binding and inhibition was assessed by measuring the interaction of biotinylated acetyl-histone H4 peptide (Anaspec #64989) with the BRD target protein utilising AlphaScreen® technology (Perkin Elmer). In a white 384-well low volume plate (Greiner #784076), 100 nL of compound series in DMSO (0.5% final concentration) was added to the BRD target protein (80 nM final). After 30 min incubation at RT, H4 peptide was added to a final concentration of 2.5 nM. AlphaScreen streptavidin donor beads and AlphaScreen nickel chelate acceptor beads were added to a final concentration of 10 ug/mL each and allowed to incubate in a darkened environment for 1 h at RT. Plates were read on an EnVision plate reader (Perkin Elmer) and IC50's calculated using a four parameter non-linear curve fit.
These conditions are identical for all BRDs screened except BRD2D2 which uses 160 nM protein and 1.25 nM peptide.

[2] = test system: HL-60; assay: Cell proliferation assay (CellTiter-Glo), HL-60; type: cell-based; conditions: Homo sapiens, HL-60 cells, 72 h
Method: (§2) The cells were prepared in the required fashion (suspension or adherent). The cells were initially washed once in the culture medium that they would be finally treated in. Following this 10 ml of the test medium was added and the cells. The mixture was pipetted gently several times.
(§3) The cells were counted and then the volume was spun down to the volume necessary for the total number of cells needed. The cells were then resuspended in the appropriate test medium to the desired concentration. In general, the final concentration of non-adherent cells was 2×10^5 cells/ml i.e. 10,000 cells per 50 μ1. Once the desired concentration had been reached, 50 µl of the cells were added to the appropriate wells and the cells were incubated for 72 h at 37° C.
(§4) CellTiter-Glo Luminescent Assay (Kit G7571—See Promega's Instruction Manual for Additional Details):
(§5) Both reagents were pre-warmed to RT. The buffer was thawed in a 37° C. water bath until it had just completely thawed. It was then left on a bench at RT for at least 30 min.
(§6) Following this the substrate and buffer were mixed together. To ensure that the substrate was dissolved, the mixture was inverted several times.
(§7) The cell culture plates were removed from the incubator and were then allowed to adjust to RT for at least 30 min.
(§8) Afterwards 40 μL of the reagent was added to 100 μL of the culture medium. […] The plates were then incubated for 10 min on the bench. The luminescence could then be read using a luminescence plate reader.

[3] = test system: MV4; 11; assay: Cell proliferation assay (CellTiter-Glo), MV4;11; type: cell-based; conditions: Homo sapiens, MV4;11 cells, 72 h
Method: as §2, §3, §4, §5, §6, §7, §8

[4] = target: BRD-4 (Domain 1) (Homo sapiens (Human), UniProt O60885); assay: AlphaScreen BRD binding assay, BRD-4 (Domain 1); conditions: acetyl-histone H4 peptide 2.5 nM, protein 80 nM
Method: as §1
(§9) AlphaScreen streptavidin donor beads and AlphaScreen nickel chelate acceptor beads were added to a final concentration of 10 ug/mL each and allowed to incubate in a darkened environment for 1 h at RT. Plates were read on an EnVision plate reader (Perkin Elmer) and IC50's calculated using a four parameter non-linear curve fit.

[5] = target: BRD-4 (Domain 2) (Homo sapiens (Human), UniProt O60885); assay: AlphaScreen BRD binding assay, BRD-4 (Domain 2); conditions: acetyl-histone H4 peptide 2.5 nM, protein 80 nM
Method: as §1, §9

[6] = target: BRD-2 (Domain 1) (Homo sapiens (Human), UniProt P25440); assay: AlphaScreen BRD binding assay, BRD-2 (Domain 1); conditions: acetyl-histone H4 peptide 2.5 nM, protein 80 nM
Method: as §1, §9

[7] = target: BRD-2 (Domain 2) (Homo sapiens (Human), UniProt P25440); assay: AlphaScreen BRD binding assay, BRD-2 (Domain 2); conditions: 160 nM protein and 1.25 nM peptide
Method: as §1, §9

BRD-2 (Domain 1), sequence (P25440 74-180): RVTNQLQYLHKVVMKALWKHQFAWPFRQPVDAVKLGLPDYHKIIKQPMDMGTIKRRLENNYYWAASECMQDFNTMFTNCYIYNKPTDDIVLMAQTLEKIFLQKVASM
BRD-3 (Domain 1), sequence (Q15059 34-140): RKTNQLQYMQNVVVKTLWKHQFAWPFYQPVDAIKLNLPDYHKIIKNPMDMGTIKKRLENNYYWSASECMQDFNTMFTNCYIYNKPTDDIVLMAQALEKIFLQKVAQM
BRD-2 (Domain 2), sequence (P25440 344-453): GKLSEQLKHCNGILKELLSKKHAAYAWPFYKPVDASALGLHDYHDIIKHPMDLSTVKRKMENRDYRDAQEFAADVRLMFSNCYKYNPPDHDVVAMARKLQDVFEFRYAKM

IC50 [4] | IC50 [5] | IC50 [6] | IC50 [7] | Structure (SMILES) | IC50 [1] | IC50 [2] | IC50 [3]
 |  |  |  | Cc1nnn2c1-c1ccc(C(=O)NC(C)c3ccccc3)cc1N(c1ccc(Cl)cc1)CC2 (stereo in doubt) [Example 35, 7-(4-chlorophenyl)-1-methyl-N—((R)-1-phenylethyl)-6,7-dihydro-5H-benzo[f][1,2,3]triazolo[1,5-d][1,4]diazepine-9-carboxamide] | < 100 nM | < 1000 nM | < 1000 nM
 |  |  |  | Cc1nnn2c1-c1ccc(C(=O)NC(C)c3ccccc3)cc1N(c1ccc(Cl)cc1)CC2 (stereo in doubt) [Example 39, 7-(4-chlorophenyl)-1-methyl-N—((S)-1-phenylethyl)-6,7-dihydro-5H-benzo[f][1,2,3]triazolo[1,5-d][1,4]diazepine-9-carboxamide] | < 100 nM | < 1000 nM | < 1000 nM
 |  |  |  | Cc1nnn2c1-c1ccc(C(=O)Nc3ccccc3)cc1N(c1ccc(Cl)cc1)CC2 [Example 36, 7-(4-chlorophenyl)-1-methyl-N-phenyl-6,7-dihydro-5H-benzo[f][1,2,3]triazolo[1,5-d][1,4]diazepine-9-carboxamide] | < 100 nM | < 1000 nM | < 1000 nM
< 100 nM | < 100 nM | < 100 nM | < 100 nM | Cc1nnn2c1-c1ccc(C(=O)NS(=O)(=O)c3ccccc3)cc1N(c1ccc(Cl)cc1)CC2 [Example 40, 7-(4-chlorophenyl)-1-methyl-N-(phenylsulfonyl)-6,7-dihydro-5H-benzo[f][1,2,3]triazolo[1,5-d][1,4]diazepine-9-carboxamide] | < 100 nM | > 5000 nM | 1000 to 5000 nM
< 100 nM | < 100 nM |  |  | Cc1nnn2c1-c1ccc(C(=O)NS(C)(=O)=O)cc1N(c1ccc(Cl)cc1)CC2 [Example 41, 7-(4-chlorophenyl)-1-methyl-N-(methylsulfonyl)-6,7-dihydro-5H-benzo[f][1,2,3]triazolo[1,5-d][1,4]diazepine-9-carboxamide] |  | 1000 to 5000 nM | < 1000 nM
< 100 nM | < 100 nM | < 100 nM | < 100 nM | Cc1nnn2c1-c1ccc(C(=O)N[C@@H](C)c3ccc(F)cc3)cc1N(c1ccccc1)CC2 [Example 43] |  | < 1000 nM | < 1000 nM
< 100 nM | < 100 nM | < 100 nM | < 100 nM | Cc1nnn2c1-c1ccc(C(=O)NOCCO)cc1N(c1ccc(Cl)cc1)CC2 [Example 45, 7-(4-Chlorophenyl)-N-(2-hydroxyethoxy)-1-methyl-6,7-dihydro-5H-benzo[f][1,2,3]triazolo[1,5-d][1,4]diazepine-9-carboxamide] |  | < 1000 nM | < 1000 nM
< 100 nM | < 100 nM | < 100 nM | < 100 nM | CONC(=O)c1ccc2c(c1)N(c1ccc(Cl)cc1)CCn1nnc(C)c1-2 [Example 46, 7-(4-chlorophenyl)-N-methoxy-1-methyl-6,7-dihydro-5H-benzo[f][1,2,3]triazolo[1,5-d][1,4]diazepine-9-carboxamide] |  | < 1000 nM | < 1000 nM
< 100 nM | < 100 nM |  |  | Cc1nnn2c1-c1ccc(-c3nn[nH]n3)cc1N(c1ccc(Cl)cc1)CC2 [Example 51, 7-(4-chlorophenyl)-1-methyl-9-(2H-tetrazol-5-yl)-6,7-dihydro-5H-benzo[f][1,2,3]triazolo[1,5-d][1,4]diazepine] |  | > 5000 nM | < 1000 nM

Structure (SMILES) | IC50 [4] | IC50 [5] | IC50 [6] | IC50 [7] | IC50 [1] | IC50 [2] | IC50 [3]
Cc1ccc(-c2ccc3c(c2)N(c2ccc(Cl)cc2)CCn2nnc(C)c2-3)cn1 [Example 7, 7-(4-Chlorophenyl)-1-methyl-9-(6-methylpyridin-3-yl)-6,7-dihydro-5H-benzo[f][1,2,3]triazolo[1,5-d][1,4]diazepine] | < 100 nM | < 100 nM |  |  | < 100 nM | < 1000 nM | < 1000 nM
Cc1nnn2c1-c1ccc(-c3ccc(N)nc3)cc1N(c1ccc(Cl)cc1)CC2 [Example 8, 5-(7-(4-Chlorophenyl)-1-methyl-6,7-dihydro-5H-benzo[f][1,2,3]triazolo[1,5-d][1,4]diazepin-9-yl)pyridin-2-amine] | < 100 nM | < 100 nM |  |  | < 100 nM | < 1000 nM | < 1000 nM
Cc1nnn2c1-c1ccc(-c3cc[nH]n3)cc1N(c1ccc(Cl)cc1)CC2 [Example 10, 7-(4-Chlorophenyl)-1-methyl-9-(1H-pyrazol-3-yl)-6,7-dihydro-5H-benzo[f][1,2,3]triazolo[1,5-d][1,4]diazepine] | < 100 nM | < 100 nM |  |  | < 100 nM | < 1000 nM | < 1000 nM
Cc1nnn2c1-c1ccc(C(=O)O)cc1N(c1ccc(Cl)cc1)CC2 [Example 32, 7-(4-chlorophenyl)-1-methyl-5,6-dihydrotriazolo[1,5-d][1,4]benzodiazepine-9-carboxylic acid] |  |  | 100 to 1000 nM | < 100 nM | < 100 nM | > 5000 nM | < 1000 nM
